One experiment addresses T1, M-current (Rattus norvegicus, UniProt O88943+O88944).
T1 construct: Recordings of the M-current in sympathetic neurons in intact ganglia were performed at room temperature; from tissue
Particulars: data adapted from Costa and Brown; read-out: IC50 for blockade of M-current; cited from earlier work.

A further experiment deals with rat hippocampal neurons. The following applies: rat hippocampal neurons (Lampe & Brown 1991); cited from earlier work.
For experiment [1] the following is noted: mammalian CNS; cited from earlier work.
The target in another experiment is KCNQ2 (Homo sapiens, UniProt O43526, DEL417-446). In words: Perforated-patch voltage clamp of HEK 293E cells stably expressing hKCNQ2. Further details: Full-length hKCNQ2 cDNAs were amplified from adult human brain cDNA; expressed in transfected cells; host or cells: 293 EBNA (HEK 293E) cells, episomal plasmid pm3AR-hKCNQ2-1, hygromycin B selection. The format is cell-based. The following applies: FIG. 5 (0.3 uM). The procedure: To determine whether the hygromycin B resistant HEK 293E cells express functional hKCNQ2 channels, the presence of potassium currents was evaluated using the perforated-patch voltage-clamp technique. Briefly, cells growing on plastic Petri dishes or poly-D-lysine-coated glass coverslips in DMEM (with 10% FBS and 250 ug/ml hygromycin B) at 37° C. and 5% CO2 were removed from the incubator and allowed to reach room temperature. Growth medium was replaced with a bathing solution containing, in mM: 140 NaCl, 3 KC1, 2.5 CaCl2, 1 MgCl2, 10 HEPES, 10 dextrose, pH adjusted to 7.2-7.4 with NaOH and osmolarity adjusted to 305-310 mosm with water. […]
Stock solution(s) of test compound(s) was (were) prepared immediately before use. […] Generally, the stock solution is about 0.1 mM to about 100 mM in DMSO and the aliquot is about 5 to about 100 uL, but it is understood that the concentration and volumes are not limited to these ranges for one skilled in the art can readily determine the appropriate concentrations and volumes dependening on the activity of the compound in the assay and the sensitivity of detection. […]

For the compound `O=C1N(c2ccccc2)c2ccccc2C1(Cc1ccncc1)Cc1ccncc1` [Linopirdine, 3,3-bis(4-pyridinylmethyl)-1-phenylindolin-2-one], the IC50 on M-current was 7 ± 1.1 µM. Also, the Spike frequency adaptation result in the experiment with rat hippocampal neurons is “reduced spike frequency adaptation”. The “K+-stimulated release of acetylcholine, dopamine and glutamate” value in experiment [1] is “enhance K^+-stimulated release of acetylcholine, dopamine and glutamate”.

For the compound `O=C1c2ccccc2C(Cc2ccncc2)(Cc2ccncc2)c2ccccc21` [XE991, 10,10-bis(4-pyridinylmethyl)-9(10H)-anthracenone], the “Block of hKCNQ2 current” value at KCNQ2 was “reversibly blocks hKCNQ2”.

The values are drawn from patent publication US20040175691A1, “Use of the KCNQ2 and KCNQ3 genes for the discovery of agents useful in the treatment of neurological disorders” (priority 1998, published 2004).
